Columns and labels:
Type in all cases: in vivo
Parameters in all cases: key: 0: no effect; 10-25% kill; 26-35% kill; 36-45% kill; 46-55% kill; 56-65% kill; 66-75% kill; 76-85% kill; 86-99% kill; 9: 100% kill
[1] = system: Aphis fabae, mixed instar, bean aphid; test: Bean aphid spray test on nasturtium; conditions: 100 ppm
Outline: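 Mortality rated on a scale 2 days after treatment of aphid-infested (100-200 per plant, infested a day earlier) ~5 cm nasturtiums sprayed to complete coverage. Spray solutions: 10,000 ppm compound in 35% acetone in water, with further water dilutions.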

[2] = system: Tetranychus urticae (OP-resistant strain), 2-spotted spider mite; test: 2-spotted spider mite test, dipped infested limabean plants
Outline: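 Compound dissolved at 10,000 ppm in 35% aqueous acetone, then water-diluted; limabean primary leaves carrying ~100 OP-resistant mites each are dipped 3 s and dried. Adult mortality read on one leaf after 2 days, eggs/newly emerged nymphs on another after 5 days, scored by rating scale.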

[3] = system: Spodoptera eridania, 3rd instar larvae, southern armyworm; test: Southern armyworm 3rd instar test, dipped limabean leaf; conditions: for ARMYWORM Day 3: rating at 3 days; for ARMYWORM Day 5: rating at 5 days
Outline: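 Ten 3rd instar larvae fed on limabean leaves that had been dipped for 3 s in test solution and dried. Test solutions were diluted in water from a 10,000 ppm stock in 35% acetone/water. Ratings at days 3 and 5 covered death, feeding reduction and abnormal molting.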

[4] = spray, mortality rating after 2 days
[5] = 300 ppm, mortality rating after 2 days
[6] = 10 ppm, adult mites, rating scale 0-9
[7] = 10 ppm, mite eggs, rating scale 0-9
[8] = 100 ppm, adult mites, rating scale 0-9
[9] = 100 ppm, mite eggs, rating scale 0-9
[10] = 300 ppm, adult mites, rating scale 0-9
[11] = 300 ppm, mite eggs, rating scale 0-9
[12] = 300 ppm, mite nymphs, rating scale 0-9
[13] = 10 ppm, mite nymphs, rating scale 0-9

Structure (SMILES): N#Cc1c(Br)c(C(F)(F)F)n(CSC2=NCCN2)c1-c1ccc(Cl)cc1 [Example 7]
- APHIDS [1, 4]: 0
- OP-RESISTANT MITES Adult ([2]; 10 ppm, mortality rating after 2 days): 9 (100% kill)
- OP-RESISTANT MITES Egg ([2]; 10 ppm, rating after 5 days): 0
- OP-RESISTANT MITES Nymph ([2]; 10 ppm, rating after 5 days): 0
- OP-RESISTANT MITES Adult ([2]; 100 ppm, mortality rating after 2 days): 9 (100% kill)
- OP-RESISTANT MITES Egg ([2]; 100 ppm, rating after 5 days): 9 (100% kill)
- OP-RESISTANT MITES Adult [2, 5]: 9 (100% kill)
- OP-RESISTANT MITES Egg ([2]; 300 ppm, rating after 5 days): 0
- OP-RESISTANT MITES Nymph ([2]; 300 ppm, rating after 5 days): 0
- ARMYWORM Day 3 ([3]; 10 ppm): 9 (100% kill)
- ARMYWORM Day 5 ([3]; 10 ppm): 9 (100% kill)
- ARMYWORM Day 3 ([3]; 100 ppm): 9 (100% kill)
- ARMYWORM Day 5 ([3]; 100 ppm): 9 (100% kill)
- ARMYWORM Day 3 ([3]; 1000 ppm): 9 (100% kill)
- ARMYWORM Day 5 ([3]; 1000 ppm): 9 (100% kill)

Structure (SMILES): CSCn1c(-c2ccc(Cl)cc2)c(C#N)c(Br)c1C(F)(F)F [Example 25]
- APHIDS [1, 4]: 0
- OP-RESISTANT MITES Adult [2, 5]: 7 (76-85% kill)
- OP-RESISTANT MITES Egg ([2]; 300 ppm, rating after 5 days): 0
- OP-RESISTANT MITES Nymph ([2]; 300 ppm, rating after 5 days): 0
- ARMYWORM Day 3 ([3]; 10 ppm): 0
- ARMYWORM Day 5 ([3]; 10 ppm): 0
- ARMYWORM Day 3 ([3]; 100 ppm): 9 (100% kill)
- ARMYWORM Day 5 ([3]; 100 ppm): 9 (100% kill)
- ARMYWORM Day 3 ([3]; 1000 ppm): 9 (100% kill)
- ARMYWORM Day 5 ([3]; 1000 ppm): 9 (100% kill)

Structure (SMILES): CC(C)OC(=S)SCn1c(-c2ccc(Cl)cc2)c(C#N)c(Br)c1C(F)(F)F [Example 30]
- APHIDS ([1]; rating scale 0-9): 3 (36-45% kill)
- OP-RESISTANT MITES Adult [2, 6]: 9 (100% kill)
- OP-RESISTANT MITES Egg [2, 7]: 9 (100% kill)
- OP-RESISTANT MITES Adult [2, 8]: 9 (100% kill)
- OP-RESISTANT MITES Egg [2, 9]: 9 (100% kill)
- OP-RESISTANT MITES Adult [2, 10]: 9 (100% kill)
- OP-RESISTANT MITES Egg [2, 11]: 0
- OP-RESISTANT MITES Nymph [2, 12]: 0
- ARMYWORM Day 3 ([3]; 10 ppm): 9 (100% kill)
- ARMYWORM Day 5 ([3]; 10 ppm): 9 (100% kill)
- ARMYWORM Day 3 ([3]; 100 ppm): 9 (100% kill)
- ARMYWORM Day 5 ([3]; 100 ppm): 9 (100% kill)
- ARMYWORM Day 3 ([3]; 1000 ppm): 9 (100% kill)
- ARMYWORM Day 5 ([3]; 1000 ppm): 9 (100% kill)

Structure (SMILES): CCOC(=S)SCn1c(-c2ccc(Cl)c(Cl)c2)c(Br)c(C(F)(F)F)c1C(F)(F)F [Example 35]
- APHIDS ([1]; rating scale 0-9): 0
- OP-RESISTANT MITES Nymph [2, 13]: 0
- OP-RESISTANT MITES Egg [2, 11]: 0
- OP-RESISTANT MITES Nymph [2, 12]: 0
- ARMYWORM Day 3 ([3]; 10 ppm): 9 (100% kill)
- ARMYWORM Day 5 ([3]; 10 ppm): 9 (100% kill)
- ARMYWORM Day 3 ([3]; 100 ppm): 9 (100% kill)
- ARMYWORM Day 5 ([3]; 100 ppm): 9 (100% kill)
- ARMYWORM Day 3 ([3]; 1000 ppm): 9 (100% kill)
- ARMYWORM Day 5 ([3]; 1000 ppm): 9 (100% kill)

Structure (SMILES): FC(F)(F)c1c(Br)c(-c2ccc(Cl)c(Cl)c2)n(CSC2=NCCCN2)c1C(F)(F)F [Example 17]
- APHIDS ([1]; rating scale 0-9): 0
- OP-RESISTANT MITES Adult [2, 6]: 0
- OP-RESISTANT MITES Egg [2, 7]: 0
- OP-RESISTANT MITES Nymph [2, 13]: 0
- OP-RESISTANT MITES Adult [2, 8]: 0
- OP-RESISTANT MITES Egg [2, 9]: 7 (76-85% kill)
- OP-RESISTANT MITES Nymph ([2]; 100 ppm, mite nymphs, rating scale 0-9): 0
- OP-RESISTANT MITES Adult [2, 10]: 7 (76-85% kill)
- OP-RESISTANT MITES Egg [2, 11]: 0
- OP-RESISTANT MITES Nymph [2, 12]: 0
- ARMYWORM Day 3 ([3]; 10 ppm): 9 (100% kill)
- ARMYWORM Day 5 ([3]; 10 ppm): 9 (100% kill)
- ARMYWORM Day 3 ([3]; 100 ppm): 9 (100% kill)
- ARMYWORM Day 5 ([3]; 100 ppm): 9 (100% kill)
- ARMYWORM Day 3 ([3]; 1000 ppm): 9 (100% kill)
- ARMYWORM Day 5 ([3]; 1000 ppm): 9 (100% kill)

— patent EP0545103A1, “Insecticidal, acaricidal and molluscicidal 1-(substituted) thioalkylpyrroles” (priority 1991, dated 1993)
